The source of these data is patent US11273136B2, “Method for increasing protein content in milk of lactating cows” (neopharma Japan Co., Ltd., priority 2019, dated 2022).

SMILES strings stand for the structures.

In the assay the test system is lactating Holstein milk cows. In words: Crossover feeding test of 5-ALA-supplemented total mixed ration on milk yield and milk composition of lactating cows. It is filed as in vivo. The source says: Effects of ALAs on the milk composition of a lactating cow was studied. Six lactating Holstein milk cows (average body weight 698±18 kg, average milk production 24.1±1.6 kg/d, average days-in-milk (DIM) 209±34 days, and average number of lactations 2.9±0.4) were placed in a free stable. After a 7-day grace period, 6 cows were randomly assigned to section A and section B (each group n=3). Section A had, after a grace period, an ALA administration period of 14 days (ALA Consumption Group A), with an adjustment period of 7 days interposed, followed by an ALA non-administration period of 14 days (Control Group A), whereas Section B had, after a grace period, an ALA non-administration period of 14 days (Control Group B), with an adjustment period of 7 days interposed, followed by an ALA administration period of 14 days (ALA Consumption Group B), whereby the test was carried out by the crossover method. A total mixed ration (TMR) (see Table 2) which had been used was fed during the above grace period, adjustment period and ALA non-administration period, and a feed to which 10 mg of 5-ALA was added per kg of the total mixed ration (TMR) was fed during the ALA administration period.
5-ALA was provided by neopharma Japan Co., Ltd. Each feed and water were available at any time but feed consumption of each group on a dry base was 23.4 kg/day per cow in the control groups and 23.6 kg/day per cow in the ALA groups. Thus, the daily consumption of 5-ALA in the ALA groups was 0.329.6 mg to 0.347.1 mg/kg b.w./day. Each of the milk cows was milked at 09:00 and 17:00 and allowed to consume each feed at any time after milking.
Amounts of Milking from each cow were automatically recorded everyday by an auto milk recorder (manufactured by ORION MACHINERY CO., LTD.). Additionally, for each group of Section A and Section B, during the last 2 days in the ALA administration period of 14 days and the non-administration period of 14 days, 50 to 100 mL of milk was collected twice a day from cows of each period to use as milk samples for data analysis. The milk samples were preserved at −30° C. until the milk composition and the like were analyzed.
Using the above milk samples collected from each of the cows, the milk composition such as milk fat, proteins, casein, lactose, total solid (TS), solid not fat (SNF), milk urea nitrogen (MUN) and somatic cell count (SCC) was measured using a […] infrared spectroscopy (Milko-Scan, 133N, manufactured by Foss Electric, Hill-erod (Denmark)). Data of each cow were calculated as an average value of 4 milk samples collected for 2 days. For each group of Section A and Section B, the data average of the ALA administration periods (ALA Group A and ALA Group B) was shown under the item of ALA consumption groups, and the data average of the non-administration periods (Control Group A and Control Group B) was shown under the item of Control groups. The data were analyzed statistically as a crossover design using the mixing procedure of SPSS (PASW Statistics 18.0, manufactured by IBM). Statistical analysis of each result was carried out by mixed model and p<0.05(*) meant statistically significant difference. A tendency toward significance was considered at p<0.10.

Setting [1] is: 10 mg 5-ALA per kg TMR, 14 days, milk of last 2 days, ± standard error.
Where [2] appears, read: 10 mg 5-ALA per kg TMR, 14 days, milk of last 2 days, ± standard error, p<0.05 vs control.
The mark [3] stands for this setting: feed to which 5-ALA was added, p<0.05.

Where the note is “10 mg 5-ALA per kg TMR fed for 14 days, crossover, n=6, ± standard error”, `NCC(=O)CCC(=O)O` [5-ALA, 5-aminolevulinic acid] came in with a Milk yield of 23.78 ± 1.67 kg/day. In addition, under setting [1], the “Milk composition: Fat” value turned out to be 4.42 ± 0.14%, the “Milk composition: Lactose” value stood at 4.82 ± 0.02%, the “Milk composition: Non-fat solid” value amounted to 9.03 ± 0.17% and the “Milk composition: Overall solid” value is 13.34 ± 0.28%. Besides, under setting [2], the “Milk composition: Casein” value was 2.71 ± 0.09 a % and the “Milk composition: Proteins” value was 3.51 ± 0.12 a %. For the setting “feed to which 5-ALA was added”, the “Lactose compared with Control Groups” value is reported as “no particular differences”, the “Milk fat compared with Control Groups” value was “no particular differences”, the “Milk yield compared with Control Groups” value was “no particular differences” and the “Non-fat solid compared with Control Groups” value was “no particular differences”. Where the note is “feed to which 5-ALA was added”, the “Overall solid compared with Control Groups” value was “no particular differences”. For the same molecule, under setting [3], the “Casein content in milk compared with Control Groups” value is “increased significantly” and the “Protein content in milk compared with Control Groups” value was “increased significantly”.
